Our source for the IC50 and Ki values is patent publication US11905273B2, “Inhibitors for the B-catenin/B-cell lymphoma 9 (BCL9) protein-protein interaction” (H. LEE MOFFITT CANCER CENTER AND RESEARCH INSTITUTE, INC., priority 2017, dated 2024).

The structures appear in SMILES notation. Counter-ions that a name gives are not always drawn. Like-named read-outs stand apart in the source and are kept apart here.

The test system of one test is HCT116. Kind of test: MTs cancer cell growth inhibition assay, HCT116. Format: cell-based. Particulars: Wnt/β-catenin-hyperactive, 72 h, mean ± SD (n = 3). On the procedure:
(§1) MTs Cell Viability Assay. Colorectal cancer cell lines, SW480 and HCT116, and triple-negative breast cancer cell line MDA-MB-231 were seeded in 96-well plates at 4=10^3 cells/well, maintained overnight at 37°C., and incubated in the presence of 1 and 2 at various concentrations. Cell viability was monitored after 72 h using a freshly prepared mixture of 1 part phenazine methosulfate (PMS, Sigma) solution (0.92 mg/mL) and 19 parts 3-(4,5-dimethylthiazol-2-yl)-5-(3-carboxymethoxyphenyl)-2-(4-sulfophenyl)-2H-tetrazolium (MTs, Promega) solution (2 mg/mL). Cells were incubated in 10 μL of this solution at 37° C. for 3 h, and A490 was measured. […] Experiments were performed in triplicate.

In a further test the test system is SW480. Nature of the test: MTs cancer cell growth inhibition assay, SW480. In kind it is cell-based. The conditions noted are these: Wnt/β-catenin-hyperactive, 72 h, mean ± SD (n = 3). Here is the method:
as §1

The next test has as its system MDA-MB-231. Kind of test: MTs cancer cell growth inhibition assay, MDA-MB-231. Particulars: Wnt/β-catenin-hyperactive, 72 h, mean ± SD (n = 3). In kind it is cell-based. Here is the method: as §1
The target of the next test is β-catenin/BCL9 (Homo sapiens (Human), UniProt P35222). Kind of test: AlphaScreen competitive inhibition assay of the β-catenin/BCL9 interaction. In kind it is binding. The conditions noted are these: read-out: Ki ± SD β-catenin/BCL9. On the procedure: AlphaScreen Assays. All experiments were performed in shite opaque 384-well plates from PerkinElmer (Waltham, MA) with an assay buffer of 25 mM HEPES (pH=7.4), 100 Mm nAcL, 0.1% BSA, and 0.01% Triton X-100. All sample signals were read on a excitation wavelength was set at 680 nm and emission at 570 nm. All of the final reaction volumes were set to 25 μL. In the cross-titration experiments of the wild-type β-catenin//wild-ty-e BCL9 interaction, N-terminally biotinlyated BCL9 (from 0 to 60 nM) and C-terminally His6-tagged μcatenin (2.5, 5, 10, 20, 40, and 80 nM) were titrated in 20 μg/mL) were added. The mixture was then covered black and incubated at 4° C. for 1 h before detection. All addition and incubation was made under subdued lighting conditions due to the photosensitivity of the beads. The data were analyzed by nonlinear least-square analyses using GraphPad Prism 5.0. Each experiment was repeated three times, and the results were expressed as mean ±standard deviation. The competitive binding experiments were performed to determine the apparent Kd values. The rule of the competitive binding experiments for associating the IC50 value with the Kd value are: (1) the expected Kd value should be 10 times higher than the concentration of either tested protein: (2) the concentrations of both tested proteins should be lower than the binding capacities of their respective beads; and (3) the concentration of the target protein (His6-tagged β-catenin) should be 10 times lower than that of the ligand protein (biotinylated BCL9). […] The donor and acceptor beads were added to a final concentration of 10 μg/mL in 25 μL assay buffer. The mixture was covered black and incubated for 1 h at 4° C. before detection. The IC50 values, which sere also the apparent Kd values from the AlphaScreen assay, were determined by nonlinear least-square analyses using GraphPad Prism 5.0. Each experiment was repeated three times, and the results were expressed as mean ±standard deviation.
Sequence of β-catenin/BCL9 (P35222 whole entry): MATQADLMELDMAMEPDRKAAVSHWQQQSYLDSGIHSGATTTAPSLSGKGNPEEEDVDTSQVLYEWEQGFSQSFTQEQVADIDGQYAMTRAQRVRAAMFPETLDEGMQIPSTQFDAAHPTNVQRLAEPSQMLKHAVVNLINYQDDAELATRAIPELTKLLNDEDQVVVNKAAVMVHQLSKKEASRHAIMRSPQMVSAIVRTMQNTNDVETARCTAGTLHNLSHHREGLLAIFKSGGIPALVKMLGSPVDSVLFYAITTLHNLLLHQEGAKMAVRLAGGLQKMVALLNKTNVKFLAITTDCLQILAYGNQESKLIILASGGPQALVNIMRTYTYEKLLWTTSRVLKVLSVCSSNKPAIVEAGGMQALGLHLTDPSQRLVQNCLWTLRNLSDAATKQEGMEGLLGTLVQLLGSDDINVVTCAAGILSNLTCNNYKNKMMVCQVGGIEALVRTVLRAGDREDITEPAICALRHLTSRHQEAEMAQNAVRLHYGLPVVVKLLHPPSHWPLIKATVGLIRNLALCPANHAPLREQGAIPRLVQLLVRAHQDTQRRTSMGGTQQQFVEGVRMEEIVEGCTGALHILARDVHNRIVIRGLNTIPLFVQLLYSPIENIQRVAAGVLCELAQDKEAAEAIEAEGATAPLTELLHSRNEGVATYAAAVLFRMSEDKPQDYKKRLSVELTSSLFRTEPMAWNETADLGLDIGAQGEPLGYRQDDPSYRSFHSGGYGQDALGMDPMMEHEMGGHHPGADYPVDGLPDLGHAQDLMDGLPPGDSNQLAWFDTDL
For the β-catenin/BCL9 competitive inhibition assay, 5 nM of biotinylated BCL9 and 40 nM of His6-tagged β-catenin were incubated in assay buffer at 4° C. for 30 min. Different concentrations of the tested inhibitor were added and incubated in 20 μL assay buffer at 4°C. for another 1 h. All of the above assay plates were covered and gently mixed on an orbital shaker. The donor and acceptor beads were then added to the plates to a final concentration of 10 μg/mL in 25 μL assay buffer. The mixture was incubated for 1 h at 4° C. before detection. The IC50 value was determined by nonlinear least-square analysis of GraphPad Prism 5.0. The inhibition constant (Ki) values were derived from the […] values using a method reported by Nikolovska-Coleska et al.^26. […] The results were expressed as mean ±standard deviation.
For orientation: In Alpha technology, singlet oxygen from a donor bead excites a nearby acceptor bead.

For test [1], the target named is TOPFlash luciferase reporter (three wild-type Tcf binding sites) in SW480. Kind of test: Wnt-responsive TOPFlash luciferase reporter assay, SW480. Format: cell-based. The conditions noted are these: 24 h treatment, mean ± SD (n = 3). On the procedure: (§2) Cell transfection and luciferase assay. FuGENE6(E269A, Promega) 96 well plate format was used for the transfection of HEK293 and SW480 cells according to the manufacturer's instruction. HEK293 cells were co-transfected with 45 ng of TOPFlash reporter gene, 135 ng pc DNA3.1-β-catenin, and 20 ng of pCMV-RL normalization reporter gene. SW480 cells were co-transfected with 60 ng of the TOPFlash or FOPFlash reporter gene and 40 ng of pCMV-RL, normalization reporter. Cells were cultured in DMEM and 10% FBS at 37° C. for 24 h, and different concentrations of inhibitors or DMSO was added After 24 h, the luciferase reporter activity was measured using the Dual-Glo system (E2940, Promega). Normalized luciferase activity in response to the treatment with 1 and 2 was compared with that obtained from the cells treated with DMSO. Experiments were performed in triplicate.
(A reporter such as luciferase makes a cellular process visible.)

The test system of another test is A549. Nature of the test: MTs growth inhibition assay, A549. Format: cell-based. The conditions noted are these: Wnt-latent, mean ± SD (n = 3).
Test [2] concerns the target TOPFlash luciferase reporter (three wild-type Tcf binding sites) in β-catenin-activated HEK239. Kind of test: Wnt-responsive TOPFlash luciferase reporter assay, β-catenin-activated HEK293. The conditions noted are these: 24 h treatment, mean ± SD (n = 3). Format: cell-based. On the procedure:
as §2

Setting [3] is: AlphaScreen, mean ± standard deviation (n = 3), Ki derived from IC50.

As for `O=C(Nc1ccc(O[C@H]2CCNC2)c(-c2ccc(F)cc2)c1)c1ccc(O[C@H]2CCNC2)c(C2=CCCCC2)c1` [Compound 4, N-(4^+-fluoro-6-(((S)-pyrrolidin-3-yl)oxy)-[1,1′-biphenyl]-6-(((S)-pyrrolidin-3-yl)oxy)-2′,3′,4′,5′-tetrahydro-[1.1′-biphenyl]-3-carboxamidedihydrochloride], the IC50 (as a rule, the concentration needed to halve the response being measured) in the test on HCT116 worked out at 6.9 ± 3.2 µM; in the test on SW480, 3.7 ± 2 µM; with MDA-MB-231 it was 3.4 ± 1.6 µM; in test [1], 8.7 ± 2.3 µM; with A549, 8.9 ± 2.7 µM. In addition, on β-catenin/BCL9 (setting [3]), the Ki came to 7.1 ± 2.5 µM.
`O=C(Nc1ccc(O[C@H]2CCNC2)c(-c2ccc(F)cc2)c1)c1ccc(O[C@H]2CCNC2)c(C2CCC(C(F)(F)F)CC2)c1` (stereo partly drawn) [Compound 5, N-(-4′-fluoro-6-(((S)-pyrrolidin-3-yl)oxy)-[1,1′-biphenyl]-3-yl)-4-(((S)-pyrrolidin-3-yl)oxy)-3-(4-(trifluoromethyl)cyclohexyl) benzamide dilydrocholoride]: the IC50 in test [2] was 10 ± 3.2 µM; with HCT116, 5.6 ± 2.7 µM; with SW480, 3.6 ± 2.7 µM; in the test with MDA-MB-231, 2.3 ± 1 µM; in test [1], 10 ± 3.3 µM; in the test on A549 it was 4.8 ± 2.4 µM. The Ki at β-catenin/BCL9 (setting [3]) was determined as 4.2 ± 2.3 µM.
For the compound `O=C(Nc1ccc(O[C@H]2CCNC2)c(-c2ccc(F)cc2)c1)c1ccc(O[C@H]2CCNC2)c(C2CCCCC2)c1` [Compound 3, 3-cyclohexyl-N-(4′-fluoro-6-(((S)-pyrrolidin-3-yl)oxy)-[1,1′-biphenyl]-3-4-(((S)-pyrrolidin-3-yl)oxy)benzamidedihydrochloride], the half-inhibitory concentration (IC50) stood at 3.8 ± 1.5 µM with HCT116, 6.6 ± 2.7 µM with SW480 and 3.8 ± 1.5 µM in the test with A549. The Ki on β-catenin/BCL9 (setting [3]) came to 14 ± 1.6 µM.
On to `Fc1ccc(-c2cc(-c3cnc4cc(O[C@H]5CCNC5)c(-c5ccc(F)c(F)c5)cc4c3)ccc2O[C@H]2CCNC2)cc1` [Compound 2, 6-(3.4-difluorophenyl)-3-(4′-fluoro-6-((S)-pyrrolidin-3-yloxy)-[1,1′-biphenyl]-3-yl)-7-((S)-pyrrolidin-3-yloxy)quinoline dihydrochloride], for which the half-maximal inhibitory concentration (IC50) is 14 ± 1.5 µM in test [2] (HEK239); 2.2 ± 1 µM in the test with HCT116 (Homo sapiens, HCT-116); 1.7 ± 0.9 µM with SW480 (Homo sapiens, SW480); 3.1 ± 1.2 µM in the test with MDA-MB-231 (Homo sapiens, MDA-MB-231); 7.9 ± 1.4 µM in test [1] (Homo sapiens, SW480); 7.5 ± 2.9 µM with A549 (Homo sapiens, A549).
Turning to `Fc1ccc(-c2cc(-c3ccc4cc(O[C@H]5CCNC5)c(-c5ccc(F)c(F)c5)cc4n3)ccc2O[C@H]2CCNC2)cc1` [Compound 1, 7-(3,4-difluorophenyl)-2-(4′-fluoro-6-((S)-pyrrolidin-3-yloxy)-[1,1′-biphenyl]-3-yl)-6-((S)-pyrrolidin-3-yloxy)quinoline dihydrochloride], the half-inhibitory concentration (IC50) in test [2] (HEK239) turned out to be 26 ± 3.1 µM; with HCT116 (Homo sapiens, HCT-116) it was 9.6 ± 2.5 µM; in the test with SW480 (Homo sapiens, SW480) it was 3.6 ± 1.9 µM; in the test with MDA-MB-231 (Homo sapiens, MDA-MB-231), 15 ± 6.1 µM; in test [1] (Homo sapiens, SW480) it was 12 ± 1.5 µM; in the test with A549 (Homo sapiens, A549), 23 ± 4.4 µM. Besides, the Ki on β-catenin/BCL9 came out at 8 ± 1.8 µM.
